Results from PMC7490411 (Signal Transduction and Targeted Therapy, 2020).

Columns and labels:
[1] = target: T1, BTK (Homo sapiens, UniProt Q06187); test: ADP-Glo biochemical kinase assay; settings: purified BTK protein, read-out: IC50 against BTK
T1 construct: purchased Invitrogen (Carlsbad, CA, USA)
Procedure: ADP-Glo^TM assay kits from Promega Corporation were used according to instructions. CHMFL-BTK-85 was generally prepared with 1:3 serial dilutions for 4 concentrations (300 nM, 100 nM, 30 nM, and 10 nM). 8 concentrations were used (1 μM to 1 nM) for ATP competition experiments. 2.5 µL BTK (10 ng/µL) was incubated with CHMFL-BTK-85 and CHMFL-BTK-85R for 60 min at room temperature in reaction buffer followed by addition of 2.5 µL ATP/substrate mixture. The assay was conducted for 1 h at 37 °C. After the plate cooled for 5 min at room temperature, 5 μL of ADP-Glo reagent was added into each well to stop the reaction and consume the remaining […] within 40 min. At the end, 10 µL kinase detection reagent was added and incubated for 30 min at room temperature. The luminescence signal was read with an envision Perkin Elmer plate reader (Envision, PE, USA).
The biochemical tests of BMX, BLK, JAK3, TXK, HER2, HER4, ITK, EGFR, and BTK were provided by Invitrogen (Carlsbad, CA, USA).

[2] = test system: BTK Y223 autophosphorylation; test: signaling pathway western blot in TMD8, REC-1 and DOHH2 cells; type: cell-based; settings: 4 h
Excerpt: The cells were then washed in PBS and lysed in cell lysis buffer. BTK, Phospho-BTK(Tyr223), PLCγ2, Phospho-PLCγ2 (Tyr1217), Phospho-AKT […], Phospho-NF-κB p65(Ser536), ERK, Phospho-p44/42MAPK (ERK1/2) (Thr202/Tyr204), AKT and GAPDH antibody (Cell signaling Technology) were used for immunoblotting.

[3] = test system: REC-1 cell (MCL)-inoculated xenograft; test: REC-1 cell subcutaneous xenograft tumor model; type: in vivo; settings: for TGI: REC-1 xenograft, 14 days
[4] = test system: ABL1(E255K)-phosphorylated; test: KINOMEscan; type: binding; settings: 1000 nM
[5] = test system: ACVR1; test: KINOMEscan; type: binding; settings: 1000 nM
[6] = test system: ADCK3; test: KINOMEscan; type: binding; settings: 1000 nM
[7] = test system: ADCK4; test: KINOMEscan; type: binding; settings: 1000 nM
[8] = test system: AKT1; test: KINOMEscan; type: binding; settings: 1000 nM
[9] = test system: BMPR1A; test: KINOMEscan; type: binding; settings: 1000 nM
[10] = test system: BMPR2; test: KINOMEscan; type: binding; settings: 1000 nM
[11] = test system: BRSK2; test: KINOMEscan; type: binding; settings: 1000 nM
[12] = test system: CAMK2A; test: KINOMEscan; type: binding; settings: 1000 nM
[13] = test system: CAMK2B; test: KINOMEscan; type: binding; settings: 1000 nM
[14] = test system: CDKL2; test: KINOMEscan; type: binding; settings: 1000 nM
[15] = test system: CLK2; test: KINOMEscan; type: binding; settings: 1000 nM
[16] = test system: CSNK1A1; test: KINOMEscan; type: binding; settings: 1000 nM
[17] = test system: CSNK1G3; test: KINOMEscan; type: binding; settings: 1000 nM
[18] = test system: EGFR(L858R,T790M); test: KINOMEscan; type: binding; settings: 1000 nM
[19] = test system: EGFR(L861Q); test: KINOMEscan; type: binding; settings: 1000 nM
[20] = test system: ERK3; test: KINOMEscan; type: binding; settings: 1000 nM
[21] = test system: GRK3; test: KINOMEscan; type: binding; settings: 1000 nM
[22] = test system: ICK; test: KINOMEscan; type: binding; settings: 1000 nM
[23] = test system: MARK3; test: KINOMEscan; type: binding; settings: 1000 nM
[24] = test system: MEK6; test: KINOMEscan; type: binding; settings: 1000 nM
[25] = test system: MINK; test: KINOMEscan; type: binding; settings: 1000 nM
[26] = test system: MKNK2; test: KINOMEscan; type: binding; settings: 1000 nM
[27] = test system: MRCKB; test: KINOMEscan; type: binding; settings: 1000 nM
[28] = test system: NEK10; test: KINOMEscan; type: binding; settings: 1000 nM
[29] = test system: NEK11; test: KINOMEscan; type: binding; settings: 1000 nM
[30] = test system: PDPK1; test: KINOMEscan; type: binding; settings: 1000 nM
[31] = test system: PIK3CA(E545A); test: KINOMEscan; type: binding; settings: 1000 nM
[32] = test system: PIK3CG; test: KINOMEscan; type: binding; settings: 1000 nM
[33] = test system: PRKCH; test: KINOMEscan; type: binding; settings: 1000 nM
[34] = test system: PRKD3; test: KINOMEscan; type: binding; settings: 1000 nM
[35] = test system: PYK2; test: KINOMEscan; type: binding; settings: 1000 nM
[36] = test system: RET(V804L); test: KINOMEscan; type: binding; settings: 1000 nM
[37] = test system: RPS6KA5(Kin.Dom.2-C-terminal); test: KINOMEscan; type: binding; settings: 1000 nM
[38] = test system: RSK1(Kin.Dom.1-N-terminal); test: KINOMEscan; type: binding; settings: 1000 nM
[39] = test system: RSK1(Kin.Dom.2-C-terminal); test: KINOMEscan; type: binding; settings: 1000 nM
[40] = test system: SRPK3; test: KINOMEscan; type: binding; settings: 1000 nM
[41] = test system: STK33; test: KINOMEscan; type: binding; settings: 1000 nM
[42] = test system: TLK1; test: KINOMEscan; type: binding; settings: 1000 nM
[43] = test system: VEGFR2; test: KINOMEscan; type: binding; settings: 1000 nM
[44] = test system: WNK2; test: KINOMEscan; type: binding; settings: 1000 nM
[45] = test system: YSK4; test: KINOMEscan; type: binding; settings: 1000 nM

T1 sequence (Q06187 whole entry): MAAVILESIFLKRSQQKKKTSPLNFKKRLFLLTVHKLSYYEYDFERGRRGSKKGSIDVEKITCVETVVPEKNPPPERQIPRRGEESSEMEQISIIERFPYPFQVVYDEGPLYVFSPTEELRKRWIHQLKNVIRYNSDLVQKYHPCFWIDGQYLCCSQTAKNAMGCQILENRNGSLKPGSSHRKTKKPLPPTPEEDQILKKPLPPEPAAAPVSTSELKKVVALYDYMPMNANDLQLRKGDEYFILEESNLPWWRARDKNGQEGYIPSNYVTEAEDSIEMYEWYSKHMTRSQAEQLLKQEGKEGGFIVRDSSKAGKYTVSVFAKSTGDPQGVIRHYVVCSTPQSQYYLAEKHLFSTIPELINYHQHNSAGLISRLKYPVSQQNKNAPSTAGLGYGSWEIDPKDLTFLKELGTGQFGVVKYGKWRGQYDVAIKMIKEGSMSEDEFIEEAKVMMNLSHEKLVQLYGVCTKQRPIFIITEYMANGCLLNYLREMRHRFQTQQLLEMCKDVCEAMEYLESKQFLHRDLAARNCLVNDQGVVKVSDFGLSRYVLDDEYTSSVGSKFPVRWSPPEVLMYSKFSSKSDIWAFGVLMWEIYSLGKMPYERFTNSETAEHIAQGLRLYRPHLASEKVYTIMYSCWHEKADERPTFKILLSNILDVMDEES

## C=CC(=O)Nc1cc(Nc2cc(-c3cccc(NC(=O)c4cc5c(s4)CCCC5)c3C)cn(C)c2=O)ccc1N1CCN(CC)CC1 [CHMFL-BTK-85]
[1]
  IC50: 11.5 nM
[2]
  concentration blocking BTK Y223 autophosphorylation: < 10 nM
[3]; 100 mg/kg/day
  TGI: 65%
[3]; 150 mg/kg/day
  TGI: 79%
[3]; mouse, 100 mg/kg/day
  toxicity signs in REC-1 xenograft model: without obvious signs of toxicity
[4]
  Percent Control: 85%
[5]
  Percent Control: 99%
[6]
  Percent Control: 78%
[7]
  Percent Control: 100%
[8]
  Percent Control: 80%
[9]
  Percent Control: 97%
[10]
  Percent Control: 100%
[11]
  Percent Control: 99%
[12]
  Percent Control: 82%
[13]
  Percent Control: 100%
[14]
  Percent Control: 98%
[15]
  Percent Control: 84%
[16]
  Percent Control: 100%
[17]
  Percent Control: 100%
[18]
  Percent Control: 99%
[19]
  Percent Control: 94%
[20]
  Percent Control: 100%
[21]
  Percent Control: 100%
[22]
  Percent Control: 100%
[23]
  Percent Control: 100%
[24]
  Percent Control: 78%
[25]
  Percent Control: 88%
[26]
  Percent Control: 100%
[27]
  Percent Control: 75%
[28]
  Percent Control: 100%
[29]
  Percent Control: 100%
[30]
  Percent Control: 77%
[31]
  Percent Control: 65%
[32]
  Percent Control: 100%
[33]
  Percent Control: 93%
[34]
  Percent Control: 100%
[35]
  Percent Control: 100%
[36]
  Percent Control: 76%
[37]
  Percent Control: 66%
[38]
  Percent Control: 100%
[39]
  Percent Control: 100%
[40]
  Percent Control: 83%
[41]
  Percent Control: 90%
[42]
  Percent Control: 99%
[43]
  Percent Control: 99%
[44]
  Percent Control: 87%
[45]
  Percent Control: 100%
